{"source": "PubChem BioAssay AID179", "about": "(DTP/NCI, 2004)", "test_system": "CEM cells HIV-1 protection, formazan growth assay", "test": "NCI AIDS Antiviral Assay", "settings": "for IC50: measured here: growth of uninfected CEM cells", "in_short": "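Human CEM cells, uninfected and HIV-1-infected, received five drug concentrations, and growth was read by soluble formazan assay. Compounds giving at least 50% protection were retested; reproducible 100% protection defined confirmed active.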", "note": "Calls of active or inactive are those of the source.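 Rule for the calls: active = compounds giving half or more protection of infected cells from virus-caused growth loss, again on retest; inactive = the rest.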", "data": [{"compound": "CCC1OC(=O)C(C)C(OC2CC(C)(O)C(O)C(C)O2)C(C)C(O)C(C)(O)CC(C)C(=O)C(C)C(O)C1C", "note": "(stereo not given)", "values": [{"measurement": "EC50", "result": "> 229", "unit": "µM"}, {"measurement": "IC50", "result": 21.4, "unit": "µM"}]}, {"compound": "Cc1ccc2c(c1)CC1(Cc3c(C)cccc3C1=O)C2=O", "note": "(stereo not given)", "values": [{"measurement": "EC50", "result": "> 200", "unit": "µM"}, {"measurement": "IC50", "result": "> 200", "unit": "µM"}]}, {"compound": "N#CCCC1(CCC#N)CCc2ccccc2C1=O", "values": [{"measurement": "EC50", "result": "> 200", "unit": "µM"}, {"measurement": "IC50", "result": "> 200", "unit": "µM"}]}, {"compound": "N=C(N)SCCc1cn2ccccc2n1", "values": [{"measurement": "EC50", "result": "> 851", "unit": "µM"}, {"measurement": "IC50", "result": 42.7, "unit": "µM"}]}, {"compound": "Cc1cc(=O)[nH]c(-n2[nH]c(C)c(CCO)c2=O)n1", "values": [{"measurement": "EC50", "result": "> 200", "unit": "µM"}, {"measurement": "IC50", "result": "> 200", "unit": "µM"}]}, {"compound": "C/C=C(\\NC(=O)C(CCCCN)NC(=O)C(C)NC(=O)C1CSC(C)C(NC(=O)C2CSCC(NC(=O)C(C)NC(=O)C(N)C(C)CC)C(=O)NC(CCCCN)C(=O)NC(Cc3ccccc3)C(=O)NC(CC(C)C)C(=O)N2)C(=O)N2CCCC2C(=O)NCC(=O)N1)C(=O)NCC(=O)NC1CSCC2NC(=O)C(Cc3ccc(O)cc3)NC(=O)C(CSC=CNC2=O)NC(=O)C(CC(N)=O)NC(=O)C(Cc2ccccc2)NC1=O", "note": "(stereo not given)", "values": [{"measurement": "outcome", "result": "inactive"}]}, {"compound": "COc1cc(CNc2cnc3ccc(N)cc3n2)cc(OC)c1OC", "values": [{"measurement": "EC50", "result": "> 525", "unit": "µM"}, {"measurement": "IC50", "result": 35.5, "unit": "µM"}]}, {"compound": "CN(C)c1ccc(/C=C2\\C=Cc3ccccc32)cc1F", "values": [{"measurement": "EC50", "result": "> 200", "unit": "µM"}, {"measurement": "IC50", "result": 120, "unit": "µM"}]}, {"compound": "COc1cc(OC)c(C2(c3c(OC(C)C)c(=O)c3=O)SCCCS2)cc1OC", "values": [{"measurement": "EC50", "result": "> 200", "unit": "µM"}, {"measurement": "IC50", "result": 170, "unit": "µM"}]}, {"compound": "COC(=O)C1=C(C(=O)OC)C2(C3=C(C)C(=O)c4ccccc43)CCC1(C)O2", "note": "(stereo not given)", "values": [{"measurement": "EC50", "result": "> 97.7", "unit": "µM"}, {"measurement": "IC50", "result": 52.5, "unit": "µM"}]}, {"compound": "CCOC(=O)c1cc2sc(NC(=O)c3cccs3)nc2o1", "values": [{"measurement": "outcome", "result": "inactive"}]}, {"compound": "Cn1c(=O)cc(N=Nc2ccc(Cl)c(Cl)c2)[nH]c1=O", "values": [{"measurement": "EC50", "result": "> 200", "unit": "µM"}, {"measurement": "IC50", "result": 16.2, "unit": "µM"}]}, {"compound": "CCC[N+]1=C/c2ccccc2OC(=O)/C=C\\1[O-]", "values": [{"measurement": "EC50", "result": "> 200", "unit": "µM"}, {"measurement": "IC50", "result": "> 200", "unit": "µM"}]}, {"compound": "N#CCc1nc(-c2ccccc2)n[nH]1", "values": [{"measurement": "EC50", "result": "> 200", "unit": "µM"}, {"measurement": "IC50", "result": "> 200", "unit": "µM"}]}, {"compound": "CCO/C=C/C(C)C1(C(=O)OCC)CCCCC1=O", "note": "(stereo not given)", "values": [{"measurement": "EC50", "result": "> 97.7", "unit": "µM"}, {"measurement": "IC50", "result": "> 97.7", "unit": "µM"}]}, {"compound": "CCN(CC)C(=S)SS(=O)(=O)c1ccc(N)cc1", "values": [{"measurement": "EC50", "result": "> 200", "unit": "µM"}, {"measurement": "IC50", "result": 56.2, "unit": "µM"}]}, {"compound": "CN(C)C(n1cc2c(c1)-c1ccc(Cl)cc1C(c1ccccc1F)=NC2)n1cc2c(c1)-c1ccc(Cl)cc1C(c1ccccc1F)=NC2", "values": [{"measurement": "EC50", "result": "> 100", "unit": "µM"}, {"measurement": "IC50", "result": 95.5, "unit": "µM"}]}, {"compound": "CCN(CC)CCOC(=O)C(Cc1cccc2ccccc12)CC1CCCO1", "note": "(stereo not given)", "values": [{"measurement": "EC50", "result": "> 200", "unit": "µM"}, {"measurement": "IC50", "result": "> 100", "unit": "µM"}]}, {"compound": "C=CCCC12CCCC(=O)C1Sc1ccccc12", "note": "(stereo not given)", "values": [{"measurement": "EC50", "result": "> 138", "unit": "µM"}, {"measurement": "IC50", "result": 91.2, "unit": "µM"}]}, {"compound": "CC(=O)N=C1N(/C=C2\\C(=O)Oc3ccccc3C2=O)C(=O)/C(=C/c2ccco2)N1C", "values": [{"measurement": "EC50", "result": "> 200", "unit": "µM"}, {"measurement": "IC50", "result": 69.2, "unit": "µM"}]}, {"compound": "CCc1nnc2c3cc4ccccc4n3cnn12", "values": [{"measurement": "EC50", "result": "> 151", "unit": "µM"}, {"measurement": "IC50", "result": "> 151", "unit": "µM"}]}, {"compound": "Nc1nc(Cl)cc(NC2(CO)CCC2)n1", "values": [{"measurement": "EC50", "result": "> 200", "unit": "µM"}, {"measurement": "IC50", "result": "> 200", "unit": "µM"}]}, {"compound": "O=C1c2ccccc2-c2c1c1ccccc1c(=O)n2CCO", "values": [{"measurement": "EC50", "result": "> 34.7", "unit": "µM"}, {"measurement": "IC50", "result": 1.95, "unit": "µM"}]}, {"compound": "CC(C)OP(=O)(OC(C)C)C(=NCCN=C(NNc1ccc([N+](=O)[O-])cc1)P(=O)(OC(C)C)OC(C)C)NNc1ccc([N+](=O)[O-])cc1", "values": [{"measurement": "EC50", "result": "> 7.24", "unit": "µM"}, {"measurement": "IC50", "result": "> 7.24", "unit": "µM"}]}, {"compound": "CC1OC(OC2C(Oc3cc(O)c4c(c3)OC(c3ccc(O)cc3)CC4=O)OC(CO)C(O)C2O)C(O)C(O)C1O", "note": "(stereo not given)", "values": [{"measurement": "EC50", "result": "> 200", "unit": "µM"}, {"measurement": "IC50", "result": "> 200", "unit": "µM"}]}, {"compound": "N#CC1C(=N)Cc2ccccc2-c2ccccc21", "note": "(stereo not given)", "values": [{"measurement": "EC50", "result": "> 200", "unit": "µM"}, {"measurement": "IC50", "result": 1.55, "unit": "µM"}]}, {"compound": "CCCOC(=O)c1cc(OC(C)=O)c2c(OC)ccc(OC)c2c1", "values": [{"measurement": "EC50", "result": "> 40.7", "unit": "µM"}, {"measurement": "IC50", "result": "> 40.7", "unit": "µM"}]}, {"compound": "C#CCN1CCCC(O)C1", "note": "(stereo not given)", "values": [{"measurement": "outcome", "result": "inactive"}]}, {"compound": "CN(C)CCn1c2c(c3ccccc31)CCc1ccccc1-2", "values": [{"measurement": "EC50", "result": "> 200", "unit": "µM"}, {"measurement": "IC50", "result": 15.5, "unit": "µM"}]}, {"compound": "CC(=O)Nc1cc(Cl)cc2[nH]c(C)nc12", "values": [{"measurement": "EC50", "result": "> 955", "unit": "µM"}, {"measurement": "IC50", "result": 676, "unit": "µM"}]}, {"compound": "Cc1c2ccccc2nc(CCl)[n+]1[O-]", "values": [{"measurement": "EC50", "result": "> 200", "unit": "µM"}, {"measurement": "IC50", "result": 3.24, "unit": "µM"}]}, {"compound": "CC(=O)Oc1cccc2c1ccc1nonc12", "values": [{"measurement": "EC50", "result": "> 174", "unit": "µM"}, {"measurement": "IC50", "result": 28.2, "unit": "µM"}]}, {"compound": "O=C(NCCCl)SCCO", "values": [{"measurement": "EC50", "result": "> 1350", "unit": "µM"}, {"measurement": "IC50", "result": "> 1350", "unit": "µM"}]}, {"compound": "O=C(O)c1c(O)ccc(N=Nc2ccc(CCc3ccc(N=Nc4ccc(O)c(C(=O)O)c4O)cc3S(=O)(=O)O)c(S(=O)(=O)O)c2)c1O", "values": [{"measurement": "EC50", "result": "> 162", "unit": "µM"}, {"measurement": "IC50", "result": 97.7, "unit": "µM"}]}]}
